Results reported in paper PMC2034157, “CRC/EORTC/NCI Joint Formulation Working Party: experiences in the formulation of investigational cytotoxic drugs” (British Journal of Cancer, 1995).
Values after ≈ are worked out from the molar mass of the structure shown. Like-named read-outs stand apart in the source and are kept apart here.

Assays:
physchem [1] = experiment: physchem
From the text: (§1) Brsh Jowbnl d Cancer ( ) 72, 210-218 ? […] Figwe 3 Chemical stnruu of disulphonated aluminium phthalocyamne.

[2] = parameters: method as in Torres-Labandeira et al., 1991; settings: 40% aqueous solution of HPCD; ref Torres-Labandeira et al., 1991; cited from earlier work
[3] = Stability of formulated product (shelf-life, reconstituted solution); settings: for pH of reconstituted solution: lyophilised product reconstituted with water
From the text: as §1

B16 melanoma = experiment: Anti-tumour activity against B16 melanoma; format: in vivo
From the text: as §1

[4] = Solution stability / decomposition studies
From the text: (§2) Figwe 3 Chemical stnruu of disulphonated aluminium phthalocyamne.

[5] = cited from earlier work; for maximum tolerated dose (MTD): ref Judson et al., 1989
[6] = phase I studies; ref Sessa et al., 1991; cited from earlier work
Aqueous solubility = settings: for aqueous solubility (in words): water / aqueous solution
P388 leukaemia = experiment: Anti-tumour activity against P388 leukaemia; format: in vivo
From the text: as §1

[7] = data from the drug's discoverers; ref Pettit et al., 1982; cited from earlier work
[8] = Phase I/II clinical trials: toxicity; format: in vivo, human; settings: phase I trial
From the text: as §1

[9] = Compatibility and adsorption studies with administration sets; format: physicochemical
From the text: as §1

DNA polymerase-alpha = test system: DNA polymerase-alpha; parameters: method as in Bucknall et al., 1973; Taguchi et al., 1978; settings: ref Bucknall et al., 1973; Taguchi et al., 1978; cited from earlier work
colon 26 = experiment: Anti-tumour activity against colon 26 tumour; format: in vivo
From the text: as §1

physchem [10] = experiment: physchem; remark: listed apart in the source
[11] = Clinical pharmacokinetics in phase I trial; format: in vivo, human
From the text: as §1

[12] = Preclinical toxicology studies
From the text: as §2

gliomas = test system: gliomas; parameters: method as in Stevens and Newlands, 1993; settings: daily for five consecutive days; ref Stevens and Newlands, 1993; cited from earlier work
Murine anti-tumour tests = format: in vivo
From the text: as §1

[13] = parameters: method as in de Vries et al., 1993; settings: aqueous solution; ref de Vries et al., 1993; cited from earlier work
[14] = 50% aqueous PEG 3400, 30 mg ml-1, not further diluted; ref Gibson et al. (1990); cited from earlier work
L1210 leukaemia = experiment: Anti-tumour activity against L1210 leukaemia; format: in vivo
From the text: as §1

MX-1 mammary carcinoma = test system: MX-1 mammary carcinoma; parameters: method as in Waud et al., 1992; settings: xenograft in athymic mice; ref Waud et al., 1992; cited from earlier work
LOX amelanotic melanoma = test system: LOX amelanotic melanoma; parameters: method as in Waud et al., 1992; settings: xenograft in athymic mice; ref Waud et al., 1992; cited from earlier work
NCI-H82 = test system: NCI-H82; parameters: method as in Waud et al., 1992; settings: xenograft in athymic mice; ref Waud et al., 1992; cited from earlier work
[15] = test system: acid or alkaline phosphatase; experiment: Incubation of prodrug with phosphatase; format: biochemical; settings: incubated with acid or alkaline phosphatase
From the text: as §1

[16] = In vivo anti-tumour activity
From the text: as §1

O=C1N[C@H]2[C@H](O)[C@H](O)[C@@H](O)[C@H](O)[C@@H]2c2cc3c(c(O)c21)OCO3 [Pancratistatin]
solubility (physchem [1]; aqueous solubilisation with complexing agent): 1000 µg/mL (≈ 3.07 mM) | solubility (physchem [1]; solubility in a range of solvents): < 400 µg/mL | solubility in hydroxypropyl-beta-cyclodextrin solution [2]: approximately 1.2 mg ml-' | pH of reconstituted solution [3]: 6.3

C[C@@]1(CO)[C@H](O)CC[C@@]2(C)[C@H]1CC[C@H]1C[C@@H]3C[C@@]12CC[C@]3(O)COC(=O)CN.Cl [aphidicolin glycinate]
anti-tumour activity (B16 melanoma): active | pH of maximal stability ([4]; pH 2.0-9.0 at 40-C): 4.5 | dose at which toxicity was dose limiting ([5]; 1 h infusion for five consecutive days every 3 weeks, ref Sessa et al., 1991): 2250 mg m-2 | dose at which toxicity was dose limiting ([5]; 24 h infusion every 3 weeks, ref Sessa et al., 1991): 4500 mg m-2 | dose-limiting toxicity ([5]; both phase I studies, ref Sessa et al., 1991): Local toxicity | pharmacologically active levels [6]: had not been achieved | solubility of hydrochloride salt of the glycine amino group (Aqueous solubility; hydrochloride salt): greater than 100 mgnml' | time diluted solution is stable ([3]; 1 mg ml-1 in 5% dextrose or 0.9% sodium chloride injection, HPLC): more than 24 h | time reconstituted solution is stable ([3]; 100 mg ml-1 in water for injection): at least 24 h | anti-tumour activity (P388 leukaemia): active

CCC/C=C/C=C/C(=O)O[C@H]1/C(=C/C(=O)OC)C[C@H]2C[C@H]([C@@H](C)O)OC(=O)C[C@H](O)C[C@@H]3C[C@H](OC(C)=O)C(C)(C)[C@](O)(C[C@@H]4C/C(=C/C(=O)OC)C[C@H](/C=C/C(C)(C)[C@]1(O)O2)O4)O3 [bryostatin 1]
aqueous solubility (in words) [7]: lmited | percentage of ethanol below which the drug precipitated (physchem [1]; ethanolic solutions at predicted formulation concentrations): below 50% | local toxicity thought to be associated with high ethanol concentration ([8]; ethanol solution): phlebitis | major toxicity ([8]; with or without in-line dilution): general myalgia | adsorption onto administration set surfaces ([9]; PTFE-lined sets, ethanol concentration below 50%): significant | adsorption onto administration set surfaces ([9]; plastic not PTFE-lined (e.g. PVC)): exten- sive adsorption

C[C@@]1(CO)[C@H](O)CC[C@@]2(C)[C@H]1CC[C@H]1C[C@@H]3C[C@@]12CC[C@]3(O)CO [Aphidicolin, reference compound]
anti-tumour activity (B16 melanoma): observed | effect on DNA polymerase (DNA polymerase-alpha): inhibit | anti-tumour activity (colon 26): observed | solubility (physchem [10]): ~250 µg/mL (≈ 0.739 mM)

Cn1nnc2c(C(N)=O)ncn2c1=O [Temozolomide]
solubility in DMSO relative to mitozolomide (physchem [1]; DMSO): less soluble | bioavailability ([11]; human, in vivo, patients, 200 mg m2, oral vs i.v., read-out: bioavailability of oral formulation): ~100% | dose dependency in the pharmacokinetics ([11]; oral formulation, dose escalations): no evidence of dose dependency | absorption of oral formulation ([11]; patients, oral): rapid | toxicity relative to mitozolomide ([12]; in vivo): ess toxi | activity against gliomas (gliomas): evident | potency relative to mitozolomide (Murine anti-tumour tests): less potent

Cn1c(/C=C/CO)c(CO)c2c1C(=O)C=C(N1CC1)C2=O [E.O.9]
solubility (physchem [10]): 200 to 500 µg/mL (≈ 0.694 to 1.73 mM) | aqueous solubility (in words) (Aqueous solubility): lmited | time reconstituted solution is stable ([3]; 0.5 mg ml-1 in 0.9% sodium chloride, room temperature): at least 24 h | pH of maximum stability [13]: around 9.5

CO[C@@H](/C(C)=C/C=C/C(C)=C/c1coc(C)n1)[C@@H](C)[C@@H]1C[C@H](O)[C@@]2(C)O[C@@H]2/C=C/[C@@H](C)[C@H]2C[C@H](CC(=O)O2)C[C@@H]2O[C@H]2C(=O)O1 [Rhizoxin]
solubility in t-butanol and t-butanol-water mixtures (physchem [1]; t-butanol, t-butanol-water): excellent | solubility (physchem [10]): 12 µg/mL (≈ 0.0192 mM) | increase in degradation in presence of light vs protected from light ([4]; pH 5.6): approximately 2 -fold

CN(CO)c1nc(N(C)CO)nc(N(C)CO)n1 [Trimelamol, N2,N4,N6-trihydroxymethyl-N2,N4,N6-trimethylmelamine]
solubility (physchem [1]; 95% ethanol): ~45000 µg/mL (≈ 174 mM) | solubility (physchem [1]; DMA): ~375000 µg/mL (≈ 1450 mM) | solubility (physchem [1]; propylene glycol): ~15000 µg/mL (≈ 58.1 mM) | anti-tumour activity (B16 melanoma): active | anti-tumour activity (colon 26): active | solubility (physchem [10]; water): 10000 µg/mL (≈ 38.7 mM) | t/2 of reconstituted freeze-dried formulation [14]: 46.3 h | anti-tumour activity (L1210 leukaemia): active | pH of maximum stability ([4]; HPLC, 25C, pH 3-12.5): 10-11 | half-life ([4]; buffer, pH 10): > 30 h | maximum tolerated dose (MTD) ([5]; single administration): 2400 mgm-2 | maximum tolerated dose (MTD) ([5]; thrice-daily schedule): 1000 mg m2 | anti-tumour activity (P388 leukaemia): active

COc1ccc(O)cc1 [4-Hydroxyanisole]
toxicity observed ([8]; intravenous, ethanol vehicle): Hepatotoxicity was observed

CCCCCCCCCCCCCCCCCCOCC1(COP(=O)([O-])OCC[N+](C)(C)C)CCCO1 (stereo not shown) [SRI 62-834]
local tolerance of simple aqueous formulations ([12]; simple aqueous formulations): irritation at the site of injection | solubility in aqueous systems (Aqueous solubility; at 20C): 50 % (w/ v) | time formulation is chemically and physically stable ([3]; Intralipid formulation): 3 months

CNC(=O)OCc1nc(SC)n(C)c1COC(=O)NC.Cl [Carmethizole hydrochloride, carmethizole hydrochloride]
anti-tumour activity (MX-1 mammary carcinoma): active | anti-tumour activity (LOX amelanotic melanoma): active | anti-tumour activity (NCI-H82): active | toxicity observed ([12]; preclinical toxicology studies): signifiant cardiotoxicity | pH of maximal stability ([4]; about pH 1 or lower): ~1 | solubility of the hydrochloride salt (Aqueous solubility; hydrochloride salt): greater than 500 mg ml- 1 | teA (time to 10% decomposition) ([3]; freeze-dried product reconstituted with water for injection, solution pH 2.8): ~5.4 h | pH of reconstituted solution [3]: 2.8

CS(=O)(=O)OCCN(CCCl)c1ccc(C(=O)N[C@@H](CCC(=O)O)C(=O)O)cc1 [Springer prodrug]
time until degradation apparent ([3]; lyophilised material at 20-25C): ≤ 2 weeks | time lyophilised material is stable ([3]; stored at 4C): up to 1 year

NC(=O)c1ncn2c(=O)n(CCCl)nnc12 [Mitozolomide, mitozolomide, reference compound]
toxicity for which trials were terminated ([5]; phase I and phase II clinical trials): unpredictable throm- bocYtopenia

COc1ccc(/C=C\c2cc(OC)c(OC)c(OC)c2)cc1OP(=O)(O)O [phosphate ester]
release of parent molecule [15]: released the parent mokcule | stability in aqueous solutions (in words) ([4]; aqueous solutions): adequate | aqueous solubility (in words) (Aqueous solubility): adequate | in vivo activity [16]: inactive

CCN(CC)c1ccc2cc(C(=O)Nc3ccc4[nH]c(C(=O)N5C[C@@H](CCl)c6c5cc(OC(=O)Nc5ccccc5)c5[nH]cc(C)c65)cc4c3)oc2c1 [Carzelesin]
solubility in common pharmaceutically acceptable solvents (physchem [1]): very low | time drug is stable in PET vehicle ([3]; stored at -30C, PEG 400/polysorbate 80/ethanol): at least 1 year

ClCC[N+]12CC[N+](CCCl)(CC1)C2.O=C([O-])/C=C\C(=O)O.O=C([O-])/C=C\C(=O)O [Dabis maleate, 1,4-bis (2'-chloroethyl)-1,4-diazabicyclo-[2.2.1] heptane dimaleate]
recommended phase II dose ([5]; 6 h infusion for 6 weeks followed by 3 week drug vacation, ref Verweij et al., 1992): 500 mg m2 week-' | recommended dose for phase II trials ([5]; once every 3 weeks, ref van der Burg et al., 1991): 750 mg m-2 | dose-limiting toxicity ([5]; phase I, once every 3 weeks, ref van der Burg et al., 1991): neurotoxicity | toxicity of prolonged infusion ([5]; prolonged infusion, ref Verweij et al., 1992): neurotoxicity consisting of parasthesia and ataxia
